Measured values: ChEMBL document CHEMBL1821695, “Tetrazine-trans-cyclooctene ligation for the rapid construction of integrin αvβ₃ targeted PET tracer based on a cyclic RGD peptide” (Bioorg Med Chem Lett, 2011)

Legend:
[1] = molecular target: Integrin alpha-V/beta-3 (Homo sapiens) (UniProt P05106+P06756); experiment: Displacement of [125]I-echistatin from alphaVbeta3 integrin expressed in human U87MG cells by competitive binding assay; assay type: cell-based; conditions: U-87MG ATCC
[2] = tested on: Mus musculus; experiment: Biodistribution in tumor of athymic nude mouse bearing U87MG cells after 4 hrs co-injecting with 10 mg/kg of c(RGDyK) by micro PET scan method; assay type: ADME, organism-based, Neoplasm, U-87MG ATCC; design: dose 10 mg/kg; conditions: in vivo
[3] = tested on: Mus musculus; experiment: Biodistribution in abdomen of athymic nude mouse bearing U87MG cells at 3.7 MBq, iv upto 4 hrs postinjection by micro PET scan method; assay type: ADME, organism-based, U-87MG ATCC; conditions: in vivo
[4] = tested on: Mus musculus; experiment: Biodistribution in tumor of athymic nude mouse bearing U87MG cells after 0.5 hrs co-injecting with 10 mg/kg of c(RGDyK) by micro PET scan method; assay type: ADME, organism-based, Neoplasm, U-87MG ATCC; design: dose 10 mg/kg; conditions: in vivo
[5] = tested on: Mus musculus; experiment: Biodistribution in tumor of athymic nude mouse bearing U87MG cells at 3.7 MBq, iv after 4 hrs by micro PET scan method; assay type: ADME, organism-based, Neoplasm, U-87MG ATCC; conditions: in vivo
[6] = tested on: Mus musculus; experiment: Biodistribution in tumor of athymic nude mouse bearing U87MG cells at 3.7 MBq, iv after 2 hrs by micro PET scan method; assay type: ADME, organism-based, Neoplasm, U-87MG ATCC; conditions: in vivo
[7] = Chemical stability of the compound in phosphate buffer saline in presence of 5% EtOH after 6 hrs by Radio-HPLC analysis; assay type: physicochemical; conditions: phosphate buffered saline with 5% EtOH; read-out: Stability
[8] = tested on: Mus musculus; experiment: Biodistribution in tumor of athymic nude mouse bearing U87MG cells at 3.7 MBq, iv after 0.5 hrs by micro PET scan method; assay type: ADME, organism-based, Neoplasm, U-87MG ATCC; conditions: in vivo
[9] = tested on: Mus musculus; experiment: Biodistribution in tumor of athymic nude mouse bearing U87MG cells after 1 hr co-injecting with 10 mg/kg of c(RGDyK) by micro PET scan method; assay type: ADME, organism-based, Neoplasm, U-87MG ATCC; design: dose 10 mg/kg; conditions: in vivo
[10] = tested on: Mus musculus; experiment: Biodistribution in tumor of athymic nude mouse bearing U87MG cells after 2 hrs co-injecting with 10 mg/kg of c(RGDyK) by micro PET scan method; assay type: ADME, organism-based, Neoplasm, U-87MG ATCC; design: dose 10 mg/kg; conditions: in vivo
[11] = tested on: Mus musculus; experiment: Biodistribution in tumor of athymic nude mouse bearing U87MG cells at 3.7 MBq, iv after 1 hr by micro PET scan method; assay type: ADME, organism-based, Neoplasm, U-87MG ATCC; conditions: in vivo

Activity [1]	Drug uptake [2]	Drug uptake [3]	Drug uptake [4]	Drug uptake [5]	Drug uptake [6]	remaining at 6 h [7]	Drug uptake [8]	Drug uptake [9]	Drug uptake [10]	Drug uptake [11]	Compound
Dose-dependent effect	–	–	–	–	–	–	–	–	–	–	N=C(N)NCCC[C@H]1NC(=O)CNC(=O)[C@@H](CC(=O)O)NC(=O)[C@H](Cc2ccc(O)cc2)NC(=O)[C@@H](CCCCN)NC1=O
Dose-dependent effect	–	–	–	–	–	–	–	–	–	–	N=C(N)NCCC[C@H]1NC(=O)CNC(=O)[C@@H](CC(=O)O)NC(=O)[C@H](Cc2ccc(O)cc2)NC(=O)[C@@H](CCCCNC(=O)CCCC(=O)Nc2ccc(C3=NN=C(c4ccccn4)[C@@H]4CCC[C@@H](OCCF)CC[C@@H]34)nc2)NC1=O
–	0.4 % ID/g	Active	1.4 % ID/g	2.7 % ID/g	4.2 % ID/g	> 95%	4.6 % ID/g	1 % ID/g	0.6 % ID/g	4.4 % ID/g	N=C(N)NCCC[C@H]1NC(=O)CNC(=O)[C@@H](CC(=O)O)NC(=O)[C@H](Cc2ccc(O)cc2)NC(=O)[C@@H](CCCCNC(=O)CCCC(=O)Nc2ccc(C3=NN=C(c4ccccn4)[C@@H]4CCC[C@@H](OCC[18F])CC[C@@H]34)nc2)NC1=O
